From article PMC11979273, “A phase I study to evaluate the safety, tolerability, and pharmacokinetics of HEC113995PA·H2O, a novel dual-acting serotonergic antidepressant, in healthy subjects” (Frontiers in Pharmacology, 2025)
Where two headings read alike, the source gives them in different places.

What was measured:
[1] = Food effect study, plasma pharmacokinetics; format: in vivo, human; conditions: for Cmax / MRT / half-life / Vd/F / Tmax: po, 20 mg; for Vd/F: read-out: Vz/F; for Tmax: N = 18, median (min, max)
Description: A total of 18 healthy subjects of both genders, were assigned randomly to three sequences A, B, and C (n = 6). All subjects received HEC113995PA·H2O tablets, with a total of 3 times administered during the trial, once per cycle, and a washout period of ≥11 days. In sequence A, the order of administration was as follows: fasting, after a standard meal, and after a high-fat meal. In sequence B, the order of administration was after a standard meal, after a high-fat meal, and fasting. Sequence C subjects were administered in the following order: after a high-fat meal, fasting, and after a standard meal. During the fed periods, a single oral dose of HEC113995PA·H2O tablet 20 mg was administered within 30 min after consumption of a standard meal (total calories: approximately 600 kcal), or a high-fat, high-calorie meal (total calories: approximately 800 kcal–1,000 kcal, which derives about 150, 250, and 500–600 kcal from protein, carbohydrate, and fat, respectively). Serial blood samples were collected before and after each cycle for PK determination of plasma concentration and the evaluation of pharmacokinetic characteristics. Safety and tolerability were assessed on days 4 and 28.
In the first dose group of single ascending-dose study, PK blood samples were collected at 0.5 h before administration and 0.5, 1, 1.5, 2, 2.5, 3, 4, 5, 6, 8, 10, 12, 24, 36, 48, and 72 h after administration. In other SAD groups, MAD groups and food effect study, PK blood samples were collected at 0.5 h before administration, and 1, 2, 3, 4, 5, 6, 7, 8, 10, 12, 24, 48, 72, 96, 120 and 144 h after administration. Approximately 4 mL of venous blood was obtained from each collection and placed in a vacuum collection vessel containing K2EDTA anticoagulant. The blood was centrifuged and packed according to the instruction provided by the Biological Sample Detection and Analysis Unit. Briefly, all samples were centrifuged at 4°C, 1,500 g for 10 min within 0.5 h after blood collection. After centrifugation, the plasma was aliquoted into two cryogenic storage tubes. The first tube (Tube A) contained at least 0.8 mL of plasma for analytical testing, and the remaining plasma is allocated into the backup tube (Tube B). The plasma samples were stored at −80°C within 1 h after aliquoting for further analysis.
The concentration of HEC113995PA·H2O in human plasma samples (K2EDTA) was quantitatively analyzed using the LC-MS/MS method. Plasma samples (50 μL) were processed using protein precipitation with 5 μL deuterated internal standard (HEC124659) and 100 μL acetonitrile. The Shimadzu LCMS-8060 system coupled with a GL Sciences Inc. InertSustain AQ-C18 HP column (50 × 2.1 mm, 3 μm) achieved chromatographic separation through gradient elution using 0.04% TFA aqueous solution (pH 2.1) and acetonitrile at 0.4 mL/min. ESI-positive mode detection employed optimized parameters: 300°C interface temperature, 250°C DL temperature, 3 L/min nebulizer gas, and 400°C heating block temperature.
Using WinNonlin 7.0 for non-compartmental analysis (NCA), pharmacokinetic (PK) parameters were meticulously calculated based on the actual sampling times for plasma, urine, and fecal samples from each subject post-administration. These parameters encompassed a comprehensive range, including the area under the concentration–time curve (AUC), AUC from time zero (pre-dose) to the time of the last measurable concentration (AUC0-t), and AUC from time zero (pre-dose) to infinity (AUC0-∞). Additionally, maximum observed plasma concentration (Cmax), time to achieve maximum plasma concentration (Tmax), terminal elimination half-life (t1/2), elimination rate constant (Ke), apparent volume of distribution (Vd/F), clearance rate (CL/F), and mean residence time (MRT) were also determined. The AUC0-t and AUC0-∞ values were computed using the linear trapezoidal rule method. Tmax and Cmax were ascertained based on the actual observed data. […]

[2] = tested on: rats; assay: Behavioral despair models, rats; format: in vivo; conditions: single, multiple, and chronic administrations, unpublished data
[3] = both sexes, human, plasma, single oral 20 mg, fasted, N = 18, mean (SD)
[4] = both sexes, human, plasma, single oral 20 mg, fed with high-fat, high-calorie meal, N = 18, mean (SD)
[5] = both sexes, human, plasma, single oral 20 mg, fed with standard meal, N = 18, mean (SD)
[6] = single 20 mg tablet, fed vs fasted

In the case of `Cc1nc(-c2cnc(N3CCN(CCCc4c[nH]c5ccc(C#N)cc45)CC3)nc2)sc1C(N)=O` [HEC113995PA·H2O], the Cmax [1, 3] was 63 ng/mL, the MRT [1, 3] was 38.3 h and the half-life [1, 3] was 29 h. The Vd/F [1, 3] was 447 L, the Tmax ([1]; both sexes, human, plasma, single oral 20 mg, fasted) was 4 h and the Cmax [1, 4] was 117 ng/mL. For the same molecule, the MRT [1, 4] was 35.8 h, the half-life [1, 4] was 30.5 h and the Vd/F [1, 4] was 297 L. The Tmax ([1]; both sexes, human, plasma, single oral 20 mg, fed with high-fat, high-calorie meal) was 5 h, the Cmax [1, 5] was 106 ng/mL and the MRT [1, 5] was 35.4 h. The half-life [1, 5] was 29.5 h, the Vd/F [1, 5] was 298 L and the Tmax ([1]; both sexes, human, plasma, single oral 20 mg, fed with standard meal) was 5 h. The AUC(0-inf) [1, 3] was 1960 ng·h/mL, the AUC(0-t) [1, 3] was 1860 ng·h/mL and the “food effect, increases in exposure parameters” value ([1]; discussion summary) was 52%–93. The “food impact on Tmax and t1/2” value ([1]; single 20 mg tablet) was “no significant impacts”, the “increase of AUC0-∞ by food intake” value [1, 6] was 52.15∼58.20% and the “increase of Cmax by food intake” value [1, 6] was 77.09∼93.45%. For the same molecule, the “increase of AUC0-∞, high-fat meal vs standard meal” value ([1]; single 20 mg tablet, P > 0.05) was 3.97%, the “increase of Cmax, high-fat meal vs standard meal” value ([1]; single 20 mg tablet, P > 0.05) was 9.24% and the CL/F ([1]; single oral 20 mg, fasted, N = 18, mean (SD)) was 10.8 (2.5) L/h. The CL/F ([1]; single oral 20 mg, fed with high-fat, high-calorie meal, N = 18, mean (SD)) was 6.8 (1.5) L/h, the CL/F ([1]; single oral 20 mg, fed with standard meal, N = 18, mean (SD)) was 7.1 (1.6) L/h and the duration of immobility [2] was “significantly reduce”.
